Where “and” joins values, the source holds several entries; their conditions need not be identical. Equal entries are not always repeated. Where two headings read alike, the source gives them in different places.
Experiments:
[1] = tested on: Salmonella typhimurium ATCC 14028; test: Effect on viability of Salmonella in suspension (Tables D-1 to D-3); type: cell-based; conditions: Table D-1
In short: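 Bactericidal activity against Salmonella measured in suspension; EC50 derived by nonlinear regression of kill versus molar concentration. Na2-EDTA and EGTA dissolved and diluted in 0.04 M PPB; EGTA heated 15 minutes at 80° C., adjusted to pH 7.0 with NaOH, filter-sterilized.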

[2] = tested on: Salmonella typhimurium on chicken skin; test: Effect of surfactants on Salmonella attached to chicken skin, drumsticks (Tables F1-F4)
[3] = tested on: Salmonella typhimurium TA98; test: Salmonella reversion assay after heating at 205° C., TA98; type: cell-based; conditions: for Revertants/plate: heated at 205° C.
Procedure: (§1) Test strains TA98 and TA100 were used. Again, mutagenicities were determined both in the absence and in the presence of the mammalian liver S9 activating system.
(§2) A response that was two times that of the solvent control was considered a positive response.

[4] = tested on: Salmonella typhimurium TA100; test: Salmonella reversion assay after heating at 205° C., TA100; type: cell-based; conditions: for Revertants/plate: heated at 205° C.
Procedure: as §1, §2

[5] = tested on: Salmonella attachment to human buccal epithelial cells; conditions: count on treated cell / untreated cell
Procedure: The Salmonella suspension and the human buccal epithelial cells were prepared according to the method described in the detachment experiments of Example 1, except that only the control buccal epithelial cells were suspended in PBS and washed twice at 4500 rpm for 10 minutes. […] The exposure of the buccal epithelial cells to the Salmonella suspension and all subsequent procedures were performed according to the method described in Example 1.

adherent S. typhimurium = conditions: 10 minutes

**Q.** `CCCCCCCCCCCCCCCC[n+]1ccccc1` [CPC, cetylpyridinium chloride] was tested. Which bacterial viability ([1]; 20 ug/ml) did it give?
**A.** 1.84 ± 0.087 × 10^8 CFU/ml

**Q.** And the bacterial viability ([1]; 22.5 ug/ml)?
**A.** 9.07 ± 2.16 × 10^7 CFU/ml

**Q.** And the bacterial viability ([1]; 25 ug/ml)?
**A.** 5.15 ± 1.18 × 10^6 CFU/ml

**Q.** And the “Enrichment, chicken legs out of ten” value ([2]; 0.1%, 4° C.)?
**A.** 8/10

**Q.** What about the “Rinse H2O” value ([2]; 0.1%, 4° C.) of the same compound?
**A.** 0 CFU/ml

**Q.** And the “Surfactant Solution” value ([2]; 0.1%, 4° C.)?
**A.** 0 CFU/ml

**Q.** What about the “Swabs, chicken legs producing the notated number of colonies” value (“Swabs … of colonies” for short) ([2]; 0.1%, 4° C.) of the same compound?
**A.** 8/10

**Q.** What about the “Swabs, colonies” value ([2]; 0.1%, 4° C.) of the same compound?
**A.** + (1-10)

**Q.** What about the “Wash H2O, chicken legs producing the notated number of colonies” value (“Wash H2O … of colonies” below) ([2]; 0.1%, 4° C.) of the same compound?
**A.** 8/10

**Q.** What about the “Wash H2O, colonies” value ([2]; 0.1%, 4° C.) of the same compound?
**A.** + (1-10)

**Q.** What about the “Enrichment, chicken legs out of ten” value ([2]; 0.1%, 25° C.) of the same compound?
**A.** 0/10

**Q.** And the “Rinse H2O” value ([2]; 0.1%, 25° C.)?
**A.** 0 CFU/ml

**Q.** And the “Surfactant Solution” value ([2]; 0.1%, 25° C.)?
**A.** 0 CFU/ml

**Q.** What about the “Swabs … of colonies” value ([2]; 0.1%, 25° C.) of the same compound?
**A.** 7/10

**Q.** What about the “Swabs, colonies” value ([2]; 0.1%, 25° C.) of the same compound?
**A.** + (1-10)

**Q.** And the “Wash H2O … of colonies” value ([2]; 0.1%, 25° C.)?
**A.** 8/10

**Q.** And the “Wash H2O, colonies” value ([2]; 0.1%, 25° C.)?
**A.** ++ (11-100)

**Q.** What about the “Enrichment, chicken legs out of ten” value ([2]; 0.5%, 4° C.) of the same compound?
**A.** 9/10

**Q.** And the “Rinse H2O” value ([2]; 0.5%, 4° C.)?
**A.** 0 CFU/ml

**Q.** What about the “Surfactant Solution” value ([2]; 0.5%, 4° C.) of the same compound?
**A.** 0 CFU/ml

**Q.** What about the “Swabs … of colonies” value ([2]; 0.5%, 4° C.) of the same compound?
**A.** 9/10

**Q.** And the “Swabs, colonies” value ([2]; 0.5%, 4° C.)?
**A.** + (1-10)

**Q.** And the “Wash H2O … of colonies” value ([2]; 0.5%, 4° C.)?
**A.** 7/10

**Q.** And the “Wash H2O, colonies” value ([2]; 0.5%, 4° C.)?
**A.** + (1-10)

**Q.** And the “Enrichment, chicken legs out of ten” value ([2]; 1.0%, 4° C.)?
**A.** 5/10

**Q.** What about the “Rinse H2O” value ([2]; 1.0%, 4° C.) of the same compound?
**A.** 0 CFU/ml

**Q.** And the “Surfactant Solution” value ([2]; 1.0%, 4° C.)?
**A.** 0 CFU/ml

**Q.** What about the “Swabs … of colonies” value ([2]; 1.0%, 4° C.) of the same compound?
**A.** 5/10

**Q.** And the “Swabs, colonies” value ([2]; 1.0%, 4° C.)?
**A.** + (1-10)

**Q.** What about the “Wash H2O … of colonies” value ([2]; 1.0%, 4° C.) of the same compound?
**A.** 9/10

**Q.** And the “Wash H2O, colonies” value ([2]; 1.0%, 4° C.)?
**A.** + (1-10)

**Q.** And the “Enrichment, chicken legs out of ten” value ([2]; .01%, 25° C.)?
**A.** 10/10

**Q.** And the “Rinse H2O” value ([2]; .01%, 25° C.)?
**A.** + (1-10)

**Q.** And the “Surfactant Solution” value ([2]; .01%, 25° C.)?
**A.** 0 CFU/ml

**Q.** What about the “Swabs … of colonies” value ([2]; .01%, 25° C.) of the same compound?
**A.** 9/10

**Q.** What about the “Swabs, colonies” value ([2]; .01%, 25° C.) of the same compound?
**A.** ++ (11-100)

**Q.** And the “Wash H2O … of colonies” value ([2]; .01%, 25° C.)?
**A.** 10/10

**Q.** What about the “Wash H2O, colonies” value ([2]; .01%, 25° C.) of the same compound?
**A.** +++ (101-300)

**Q.** What about the “Enrichment, chicken legs out of ten” value ([2]; .05%, 25° C.) of the same compound?
**A.** 7/10

**Q.** What about the “Rinse H2O” value ([2]; .05%, 25° C.) of the same compound?
**A.** 0 CFU/ml

**Q.** And the “Surfactant Solution” value ([2]; .05%, 25° C.)?
**A.** 0 CFU/ml

**Q.** What about the “Swabs … of colonies” value ([2]; .05%, 25° C.) of the same compound?
**A.** 9/10

**Q.** What about the “Swabs, colonies” value ([2]; .05%, 25° C.) of the same compound?
**A.** + (1-10)

**Q.** And the “Wash H2O … of colonies” value ([2]; .05%, 25° C.)?
**A.** 10/10

**Q.** And the “Wash H2O, colonies” value ([2]; .05%, 25° C.)?
**A.** ++ (11-100)

**Q.** What about the Revertants/plate ([3]; TA98, +S9, 0.1 μg/plate) of the same compound?
**A.** 26 ± 4 Revertants/plate

**Q.** What about the Revertants/plate ([3]; TA98, +S9, 1.0 μg/plate) of the same compound?
**A.** 20 ± 1 Revertants/plate

**Q.** What about the Revertants/plate ([3]; TA98, +S9, 5.0 μg/plate) of the same compound?
**A.** 25 ± 4 Revertants/plate

**Q.** And the Revertants/plate ([3]; TA98, +S9, 10.0 μg/plate)?
**A.** 22 ± 3 Revertants/plate

**Q.** And the Revertants/plate ([3]; TA98, -S9, 0.1 μg/plate)?
**A.** 16 ± 3 Revertants/plate

**Q.** What about the Revertants/plate ([3]; TA98, -S9, 1.0 μg/plate) of the same compound?
**A.** 20 ± 5 Revertants/plate

**Q.** And the Revertants/plate ([3]; TA98, -S9, 5.0 μg/plate)?
**A.** 22 ± 3 Revertants/plate

**Q.** What about the Revertants/plate ([3]; TA98, -S9, 10.0 μg/plate) of the same compound?
**A.** 25 ± 3 Revertants/plate

**Q.** And the “mutagenicity after heating in vegetable oil (in words)” value ([3]; TA98, absence or presence of S9, all concentrations tested)?
**A.** did not produce substances which are mutagenic

**Q.** What about the Revertants/plate ([4]; TA100, +S9, 0.1 μg/plate) of the same compound?
**A.** 122 ± 3 Revertants/plate

**Q.** What about the Revertants/plate ([4]; TA100, +S9, 1.0 μg/plate) of the same compound?
**A.** 126 ± 14 Revertants/plate

**Q.** And the Revertants/plate ([4]; TA100, +S9, 5.0 μg/plate)?
**A.** 118 ± 10 Revertants/plate

**Q.** What about the Revertants/plate ([4]; TA100, +S9, 10.0 μg/plate) of the same compound?
**A.** 123 ± 8 Revertants/plate

**Q.** And the Revertants/plate ([4]; TA100, -S9, 0.1 μg/plate)?
**A.** 117 ± 6 Revertants/plate

**Q.** What about the Revertants/plate ([4]; TA100, -S9, 1.0 μg/plate) of the same compound?
**A.** 113 ± 8 Revertants/plate

**Q.** And the Revertants/plate ([4]; TA100, -S9, 5.0 μg/plate)?
**A.** 123 ± 4 Revertants/plate

**Q.** What about the Revertants/plate ([4]; TA100, -S9, 10.0 μg/plate) of the same compound?
**A.** 126 ± 4 Revertants/plate

**Q.** And the “mutagenicity after heating in vegetable oil (in words)” value ([4]; TA100, absence or presence of S9, all concentrations tested)?
**A.** did not produce substances which are mutagenic

**Q.** What about the Counts/con ([5]; 2.5 mcg/mL) of the same compound?
**A.** 62/71

**Q.** And the Counts/con ([5]; 5 mcg/mL)?
**A.** 41/71

**Q.** And the Counts/con ([5]; 10 mcg/mL)?
**A.** 26/70 and 24/74

**Q.** What about the Counts/con ([5]; 100 mcg/mL) of the same compound?
**A.** 30/70 and 23/74

**Q.** What about the “Colony Count (±SD)” value (adherent S. typhimurium; 5 μg/ml) of the same compound?
**A.** 2.52 ± 2.69 × 10^3

**Q.** What about the “Colony Count (±SD)” value (adherent S. typhimurium; 10 μg/ml) of the same compound?
**A.** 4.40 ± 5.68 × 10^2

**Q.** And the “Colony Count (±SD)” value (adherent S. typhimurium; 50 μg/ml)?
**A.** 2.0 ± 4.5 × 10^1
